Like-named read-outs stand apart in the source and are kept apart here.
How the values were obtained:
Assay type in all cases: cell-based
[1] = test system: Human breast cancer cell line [MDA-MB-231]; test: Anti-proliferative activity (WST-8) of BRD4 targeted PROTAC in MDA-MB-231; conditions: Homo sapiens, MDA-MB-231, 72 hours
Method: (§1) Human breast cancer cell line [MDA-MB-231] was cultured in RPMI medium with 10% petal bovine serum, penicillin [100 U/ml] and streptomycin [[…]]. The synthesized compound was prepared as a stock solution of 10 mM or 50 mM dissolved in DMSO [dimethyl sulfoxide], and it was sequentially diluted to treat the cell line.
In order to observe inhibition of cell growth, cells were aliquoted into concentrations of 5,000 cells/well at 96 well plates, and then were treated with samples prepared at various concentrations for 72 hours. The cell survival was calculated by steps of adding in each well […] of water soluble tetrazolium salt (WST-8) which produces formazon in response to dehydrogenase present in the electron transport chain in mitochondria, incubating for 2 hours, measuring the absorbance at 450 nm, and calculating by GraphicPad Prism 8.0 software.

BRD4 [2] = target: T1, BRD4 (Homo sapiens, UniProt O60885); test: BRD4 degradation by western blot in A549 cells; design: BRD4 expressed in cells; endogenous in cells
Method: The human lung cancer cell line A549 was purchased from the Korean Cell Line Bank.
5×10^5 cells were seeded for each well of the 6 well plate (SPL company), and the cells were cultured with a total of 1.5 mL of the culture medium volume. The cultured cells were treated with various concentrations (0 nM, 0.1 nM, 0.3 nM, 1 nM, 3 nM, 10 nM, 30 nM, 100 nM, 300 nM, 1000 nM, 3000 nM, 10000 nM) of PROTAC compound according to the present invention and cultured for 24 hours.
For cell lysis, a lysis buffer was added and cell lysate was obtained using a cell scraper.
Specifically, cells were treated with 70 μl of 1×RIPA buffer containing protease inhibitors. Cell lysate was collected on ice using a scraper and incubated for 30 minutes. Then, cells were centrifuged at 4° C. 15,000 rpm for 30 minutes to obtain a cell lysate.
The standard curve was obtained using BCA assay, and the protein mass in the lysate was quantified by substituting the standard curve. The mixture was incubated at 37° C. for 30 minutes using a sample solution of 1 μl and a BCA solution of 200 μl. The absorbance was measured at 562 nm. Samples were prepared by adding a sample buffer to reach 10 μg per well.
SDS-PAGE was conducted by setting a running time of 70 minutes at 110 V in a 4-15% Mini-PROTEAN TGX stain-free gel (15 wells). A transfer was conducted using a trans-blot turbo transfer system (Bio-rad). Blocking was conducted using a blocking-grade blocker (Bio-rad) for 1 hour. Then, it was washed with 1×TBS containing 0.1% tween 20, and reacted with anti-BRD4 antibody (1:3000) or anti-beta-tubulin antibody (1:3000) in bovine serum albumin as a primary antibody at 4° C. for 16 hours. After washing three times for 10 minutes with 1×TBS containing 0.1% tween 20, it was reacted with anti-rabbit antibody (1:10000) in the blotting-grade blocker as a secondary antibody at room temperature for 1 hour. Then, after washing three times for 10 minutes with 1×TBS containing 0.1% tween 20, detection was conducted with SUPERSIGNAL™ WEST PICO PLUS chemiluminescence substrate.
For result analysis, final blot data were obtained using an image analyzer (GE).
DC50^1): DC50 value is calculated by comparing band intensity with that of a sample which is not treated with a PROTAC compound as a controlled group.
DC50^2): DC50 value is calculated by comparing the band intensity relative to that of beta-tubulin with that of the controlled group.

BRD4 [3] = target: T1, BRD4; test: BRD4 protein degradation by western blot in MDA-MB-231 cells; design: BRD4 expressed in cells; endogenous in cells; host or cells: MDA-MB-231; conditions: MDA-MB-231, 24 hours; for DC50: 50% inhibition of protein expression, read-out: DC50 of BRD4-targeted PROTAC
Method: as §1
To evaluate the PROTAC's degradation ability to BRD4 expressed in cells, the cells were aliquoted into a 6 well plate at a concentration of 5×10^5 cells/ml, and then the sample was treated for 24 hours. In order to conduct western blotting assay to confirm protein expression, the cell treated with the compound was treated for 30 minutes with 70 μL of RIPA buffer wherein protease inhibitor is added. Then, cell lysate was collected on ice using a scraper and centrifuged at 4° C. 15,000 rpm for 30 minutes to obtain a supernatant containing protein. Then, SDS-PAGE is conducted for 10 μg of protein per each sample, and the protein is transferred to a membrane. The protein is reacted with antibodies of anti-BRD4, anti-tubulin and anti-GAPDH at 4° C. for 16 hours, and then, reacted with secondary antibodies at room temperature for 1 hour. The protein expression is confirmed using SUPERSIGNAL™ WEST PICO PLUS chemiluminescence substrate and image analyzer. The protein expression was normalized based on the expression value of β-tublin or GAPDH. The amount of protein expression in each sample was measured in % based on the sample treated with 0.1% DMSO vehicle which was set to 100%. The amount of protein expression was quantified using the IMAGE J PROGRAM. The change in the amount of protein expression due to the treatment of compound (DC50: the concentration of compounds where the 50% inhibition of protein expression is achieved) was calculated using […] PRISM 8.0 software.

[4] = WST-8, read-out: IC50 of BRD4-targeted PROTAC (cell proliferation)
[5] = read-out: concentration at which cancer cell proliferation is effectively inhibited
[6] = A549, 24 hours; band intensity compared with untreated control; read-out: DC50 1)
[7] = A549, 24 hours; band intensity relative to beta-tubulin compared with control; read-out: DC50 2)

SMILES | IC50 [1, 4] | IC50 [1, 5] | DC50 (BRD4 [2]; [6]) | DC50 (BRD4 [2]; [7]) | BRD4 degradation (in words) (BRD4 [3]) | DC50 (BRD4 [3])
Cc1sc2c(c1C)C(c1ccc(Cl)cc1)=N[C@@H](CC(=O)Nc1cccc(OCCOCCOCCNc3cccc4cnn(C5CCC(=O)NC5=O)c(=O)c34)c1)c1nnc(C)n1-2 (stereo partly drawn) [Ex. 23, 2-((S)-4-(4-chlorophenyl)-2,3,9-trimethyl-6H-thieno[3,2-f][1,2,4]triazolo[4,3-a][1,4]diazepin-6-yl)-N-(3-(2-(2-(2-((3-(2,6-dioxopiperidin-3-yl)-4-oxo-3,4-dihydrophthalazin-5-yl)amino)ethoxy)ethoxy)ethoxy)phenyl)acetamide] | 32.2 nM | < 250 nM | 11.3 nM | 10.9 nM | effectively degraded | 2.6 nM
Cc1sc2c(c1C)C(c1ccc(Cl)cc1)=N[C@@H](CC(=O)Nc1ccc(OCCOCCOCCOCCNc3cccc4cnn(C5CCC(=O)NC5=O)c(=O)c34)cc1)c1nnc(C)n1-2 (stereo partly drawn) [Ex. 27, 2-[(9S)-7-(4-chlorophenyl)-4,5,13-trimethyl-3-thia-1,8,11,12-tetraazatricyclo[8.3.0.0^2,6]trideca-2(6),4,7,10,12-pentaen-9-yl]-N-[4-(2-{2-[2-(2-{[3-(2,6-dioxopiperidin-3-yl)-4-oxo-3,4-dihydrophthalazin-5-yl]amino}ethoxy)ethoxy]ethoxy}ethoxy)phenyl]acetamide] | 640 nM | – | 9.21 nM | 11.9 nM | – | –
Cc1sc2c(c1C)C(c1ccc(Cl)cc1)=N[C@@H](CC(=O)Nc1ccc(OCCOCCOCCOCCNc3ccc4c(=O)n(C5CCC(=O)NC5=O)ncc4c3)cc1)c1nnc(C)n1-2 (stereo partly drawn) [Ex. 28, 2-((S)-4-(4-chlorophenyl)-2,3,9-trimethyl-6H-thieno[3,2-f][1,2,4]triazolo[4,3-a][1,4]diazepin-6-yl)-N-(4-(2-(2-(2-(2-((2-(2,6-dioxopiperidin-3-yl)-1-oxo-1,2-dihydrophthalazin-6-yl)amino)ethoxy)ethoxy)ethoxy)ethoxy)phenyl)acetamide] | 33.1 nM | < 250 nM | 25.3 nM | 299 nM | effectively degraded | 3.3 nM

More lines, in order of falling IC50 [1, 4], values ahead:

IC50 [1, 4] | IC50 [1, 5] | DC50 (BRD4 [2]; [6]) | DC50 (BRD4 [2]; [7]) | BRD4 degradation (in words) (BRD4 [3]) | DC50 (BRD4 [3]) | SMILES
232 nM | – | 56.9 nM | 49.6 nM | – | – | Cc1sc2c(c1C)C(c1ccc(Cl)cc1)=N[C@@H](CC(=O)Nc1ccc(OCCOCCOCCNc3ccc4c(=O)n(C5CCC(=O)NC5=O)ncc4c3)cc1)c1nnc(C)n1-2 (stereo partly drawn) [Ex. 25, 2-((S)-4-(4-chlorophenyl)-2,3,9-trimethyl-6H-thieno[3,2-f][1,2,4]triazolo[4,3-a][1,4]diazepin-6-yl)-N-(4-(2-(2-(2-((2-(2,6-dioxopiperidin-3-yl)-1-oxo-1,2-dihydrophthalazin-6-yl)amino)ethoxy)ethoxy)ethoxy)phenyl)acetamide]
126 nM | – | 22 nM | 568 nM | – | – | Cc1sc2c(c1C)C(c1ccc(Cl)cc1)=N[C@@H](CC(=O)Nc1ccc(OCCOCCOCCNc3ccc4cnn(C5CCC(=O)NC5=O)c(=O)c4c3)cc1)c1nnc(C)n1-2 (stereo partly drawn) [Ex. 26, 2-((S)-4-(4-chlorophenyl)-2,3,9-trimethyl-6H-thieno[3,2-f][1,2,4]triazolo[4,3-a][1,4]diazepin-6-yl)-N-(4-(2-(2-(2-((3-(2,6-dioxopiperidin-3-yl)-4-oxo-3,4-dihydrophthalazin-6-yl)amino)ethoxy)ethoxy)ethoxy)phenyl)acetamide]
